Experimental data: patent US5198542A, “DNA encoding a pitvitary adenylate cyclase activating protein and use thereof” (Takeda Chemical Industries, Inc., priority 1989, dated 1993)
Like-named read-outs stand apart in the source and are kept apart here. Ends that are not written are not given here.

Legend:
[1] = hypotensive activity in male Wistar rats under nembutal anesthesia; format: in vivo, rat
Method: Using male Wistar rats having a body weight of 350 g under nembutal anesthesia, the hypotensive activity was measured.

[2] = system: adenylate cyclase; conditions: rat pituicytes

Substance | hypotensive activity ([1]; dosage 0.3 n mole/kg) | hypotensive activity ([1]; dosage 1.0 n mole/kg) | hypotensive activity ([1]; dosage 3.0 n mole/kg) | cAMP (M ± SEM) ([2]; peptide 10^-7 M) | cAMP (M ± SEM) ([2]; peptide 10^-8 M) | cAMP (M ± SEM) ([2]; peptide 10^-9 M) | cAMP (M ± SEM) ([2]; peptide 10^-10 M) | cAMP (M ± SEM) ([2]; peptide 10^-11 M) | cAMP (M ± SEM) ([2]; peptide 10^-12 M)
Syn.27p-NH2: synthesized 27-NH2, the 1st to 27th positions of mature PACAP38, formula (1") | 14.5 ± 3.1 mm Hg | 51.9 ± 9.6 mm Hg | 4.1 mm Hg | 9.20 ± 0.20 p mol/ml | 9.20 ± 0.00 p mol/ml | 7.90 ± 0.30 p mol/ml | 4.00 ± 0.20 p mol/ml | 2.55 ± 0.15 p mol/ml | 2.05 ± 0.15 p mol/ml
PACAP38 NH2: PACAP38 NH2 synthesized on p-methyl BHA resin according to the amino acid sequence of PACAP38 (Example 5) (HSDGIFTDSYSRYRKQMAVKKYLAAVLGKRYKQRVKNK-NH2; UniProt P18509 132-169, looked up) | 3.2 ± 1.9 mm Hg | 17.4 ± 2.4 mm Hg | 29.8 ± 3.6 mm Hg | – | – | – | – | – | –
